Test: excess molar enthalpy (molar enthalpy of mixing); xn = mol fraction of the nth substance listed
Conditions: 298.15 K, Liquid, Flow calorimetry

COC=O [methyl methanoate] + CCC(C)O
excess molar enthalpy [kcal/mol]
Conditions	5000 kPa	10000 kPa
x1 = 0.0501	0.1085	–
x1 = 0.0996	–	0.2144
x1 = 0.1	0.2057	–
x1 = 0.1496	0.2851	–
x1 = 0.15	–	0.2904
x1 = 0.1994	–	0.3556
x1 = 0.2	0.3517	–
x1 = 0.2493	–	0.4085
x1 = 0.2496	0.4039	–
x1 = 0.2997	–	0.4503
x1 = 0.2999	0.4445	–
x1 = 0.3504	–	0.4797
x1 = 0.3508	0.4745	–
x1 = 0.3993	–	0.4997
x1 = 0.4004	0.4926	–
x1 = 0.4503	0.5028	–
x1 = 0.4504	–	0.5095
x1 = 0.4992	–	0.5099
x1 = 0.5003	0.5039	–
x1 = 0.5501	–	0.5012
x1 = 0.5505	0.4958	–
x1 = 0.6006	0.4793	0.4852
x1 = 0.6505	0.4572	–
x1 = 0.6508	–	0.4587
x1 = 0.7002	0.4214	–
x1 = 0.7003	–	0.4234
x1 = 0.7491	–	0.3804
x1 = 0.7494	0.3806	–
x1 = 0.7997	–	0.3235
x1 = 0.8004	0.3283	–
x1 = 0.8494	–	0.2584
x1 = 0.8509	0.2606	–
x1 = 0.9006	0.1836	–
x1 = 0.9008	–	0.1743
x1 = 0.9495	0.09928	–

COC=O [methyl methanoate] + CCCCCO
Conditions	excess molar enthalpy [kcal/mol]
5000 kPa, x1 = 0.0507	0.1315
5000 kPa, x1 = 0.0997	0.2364
5000 kPa, x1 = 0.1503	0.3231
5000 kPa, x1 = 0.2004	0.3893
5000 kPa, x1 = 0.2494	0.4395
5000 kPa, x1 = 0.2991	0.4781
5000 kPa, x1 = 0.3496	0.5052
5000 kPa, x1 = 0.4005	0.5217
5000 kPa, x1 = 0.4488	0.5278
5000 kPa, x1 = 0.4998	0.5254
5000 kPa, x1 = 0.5506	0.5101
5000 kPa, x1 = 0.6009	0.493
5000 kPa, x1 = 0.6503	0.4643
5000 kPa, x1 = 0.6986	0.4309
5000 kPa, x1 = 0.7492	0.3859
5000 kPa, x1 = 0.7983	0.3299
5000 kPa, x1 = 0.8497	0.2628
5000 kPa, x1 = 0.8992	0.181
5000 kPa, x1 = 0.9509	0.08525
10000 kPa, x1 = 0.0505	0.1287
10000 kPa, x1 = 0.0994	0.2336
10000 kPa, x1 = 0.1499	0.3196
10000 kPa, x1 = 0.1998	0.386
10000 kPa, x1 = 0.251	0.438
10000 kPa, x1 = 0.3009	0.476
10000 kPa, x1 = 0.3488	0.5032
10000 kPa, x1 = 0.3997	0.5192
10000 kPa, x1 = 0.4509	0.5253
10000 kPa, x1 = 0.499	0.5227
10000 kPa, x1 = 0.5498	0.5116
10000 kPa, x1 = 0.6001	0.4941
10000 kPa, x1 = 0.6496	0.4661
10000 kPa, x1 = 0.7017	0.4273
10000 kPa, x1 = 0.7486	0.3851
10000 kPa, x1 = 0.802	0.3276
10000 kPa, x1 = 0.8493	0.2631
10000 kPa, x1 = 0.8988	0.1821
10000 kPa, x1 = 0.9507	0.0824

— the NIST ThermoML archive (doi:10.1016/j.tca.2005.11.041)
